The text below walks through data of paper PMC5062169, “Structural basis for ligand recognition by a Cache chemosensory domain that mediates carboxylate sensing in Pseudomonas syringae” (Scientific Reports, 2016).

One assay has as its target T1, PscD (PscD-SD, Cache sensor domain of chemoreceptor PscD) (Pseudomonas syringae, UniProt A0ABY1U976).
T1 construct: gene CFBP3846_03581; sensor domain, Gln31-Trp188, N-terminal His6 tag
T1 sequence (A0ABY1U976 31-188): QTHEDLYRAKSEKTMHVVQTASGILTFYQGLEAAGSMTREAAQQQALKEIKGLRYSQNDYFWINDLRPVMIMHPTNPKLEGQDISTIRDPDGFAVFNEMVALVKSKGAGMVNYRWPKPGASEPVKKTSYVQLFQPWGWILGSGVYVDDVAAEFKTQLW
Assay: not given
To be noted: Biolog plate compound, exact concentration unknown; binder. From the text:
We used high-throughput fluorescence thermal shift (FTS) assays (as described previously[16]) to screen for potential ligands of PscD-SD. FTS assays are based on the principle that ligands stabilise proteins upon binding, causing an increase in the melting temperature of the protein[22][23]. Binding can therefore be rapidly screened by measuring the difference in the temperature midpoint of unfolding (ΔTm) of a protein in the presence and absence of potential ligands. In our FTS assays, the Tm was measured by monitoring an increase in fluorescence of a dye with affinity for hydrophobic parts of the protein (i.e. SYPRO Orange), which are exposed as the protein unfolds. We screened the recombinant PscD-SD protein in FTS assays against the compounds in Biolog Phenotype Microarray (PM) plates 1 and 2 (Supplementary Tables 1 and 2). Each plate contains 95 different compounds (e.g., organic acids, sugars) and a water (no ligand) control. For use in FTS assays, the compounds were resuspended directly in water, thus generating a library of biologically relevant potential ligands. […] Fluorescent thermal shift (FTS) assays were conducted as reported previously. PscD-SD was screened for potential ligands against Biolog Phenotype Microarray (PM) plates 1 and 2 (Biolog, Hayward, CA, USA). For initial qualitative, high-throughput screening, ligands were prepared by dissolving Biolog PM compounds in 50 μL of water (each) to obtain a final concentration of approximately 10–20 mM (the exact concentrations vary from well-to-well). Screens were set up in Lightcycler 480 multiwell plates (Roche Diagnostics, Auckland, NZ) with 20 μM protein, a 5x concentration of SYPRO orange (Life Technologies, Carlsbad, CA, USA) and 5 μL of the test compound (i.e. resuspended Biolog ligands) added to each well. The plate was covered with Lightcycler 480 sealing film (Roche Diagnostics) and fluorescence signal was monitored as the temperature was increased from 20 °C to 80 °C at a rate of 1.2 °C.min^−1 in a Lightcycler 480 (Roche Diagnostics). Initial hits were further tested using known concentrations (0, 1, 2, 5 and 10 mM) of each potential ligand to confirm binding. The ligands were prepared as 10x stocks, 2 μL were added to each well, and the experiments were conducted as described above. The first derivative values (−dF/dt) from the raw fluorescence data were used to determine the melting temperature (Tm). Three biological replicates (from independently cultured and purified batches of protein) were performed for each plate screened.
As for `OC[C@H]1O[C@@](CO)(O[C@H]2O[C@H](CO)[C@@H](O)[C@H](O)[C@H]2O)[C@@H](O)[C@@H]1O` [Sucrose], the “Δ Tm” value was 0.17 ± 0.05 °C.

Regarding `Cc1cn([C@H]2C[C@H](O)[C@@H](CO)O2)c(=O)[nH]c1=O` [Thymidine], the “Δ Tm” value was determined as 0.15 ± 0.05 °C.

As for `O=C(O)CC(CC(=O)O)C(=O)O` [Tricarballylic Acid], the “Δ Tm” value is -0.03 ± 0.05 °C.

With `NCCc1ccc(O)cc1` [Tyramine], the “Δ Tm” value worked out at 0.12 ± 0.03 °C.

For `O=c1ccn([C@@H]2O[C@H](CO)[C@@H](O)[C@H]2O)c(=O)[nH]1` [Uridine], the “Δ Tm” value worked out at 0.15 ± 0.05 °C.

As to `O=C(O)CO` [glycolate], the “Δ Tm” value stood at 1.13 ± 0.00 °C.

For the compound `O=C(O)Cc1cccc(O)c1` [m-Hydroxy Phenyl Acetic Acid], the “Δ Tm” value is 0.10 ± 0.05 °C.

`O=C(O)Cc1ccc(O)cc1` [p-Hydroxy Phenyl Acetic Acid]: the “Δ Tm” value worked out at 0.15 ± 0.04 °C.

In the case of `CCC(=O)O` [propionate], the “Δ Tm” value came to 2.66 ± 0.11 °C.

Consider `CC(=O)C(=O)O` [pyruvate], for which the “Δ Tm” value stood at 1.01 ± 0.03 °C.

Take `OC[C@H]1O[C@H](O)[C@H](O)[C@@H](O)[C@@H]1O` [α-D-Glucose]: the “Δ Tm” value turned out to be 0.12 ± 0.03 °C.

Regarding `OC[C@H]1O[C@@H](O[C@H]2[C@H](O)[C@@H](O)[C@@H](O)O[C@@H]2CO)[C@H](O)[C@@H](O)[C@H]1O` [α-D-Lactose], the “Δ Tm” value was determined as 0.12 ± 0.03 °C.

For the compound `CCC(O)C(=O)O` (stereo not drawn) [α-Hydroxy Butyric Acid], the “Δ Tm” value came out at 0.17 ± 0.05 °C.

Turning to `CCC(=O)C(=O)O` [α-Keto-Butyric Acid], the “Δ Tm” value turned out to be 0.17 ± 0.05 °C.

Consider `O=C(O)CCC(=O)C(=O)O` [α-Keto-Glutaric Acid], for which the “Δ Tm” value turned out to be 0.17 ± 0.02 °C.

For `CO[C@@H]1O[C@H](CO)[C@@H](O)[C@H](O)[C@H]1O` [β-Methyl-D-Glucoside], the “Δ Tm” value worked out at 0.07 ± 0.04 °C.

Another assay has as its target T2, PscD (PscD-SD, Cache sensor domain of chemoreceptor PscD) (Pseudomonas syringae, UniProt A0ABY1U976).
T2 construct: gene CFBP3846_03581; sensor domain, Gln31-Trp188, N-terminal His6 tag
Briefly: ITC; X-ray crystal structure (propionate soak); thermal shift. In kind it is binding.
Conditions: not given
Background: In ITC the heat of successive injections is recorded.
One may read the Kd as the free concentration of one partner at which half of the binding sites on the other are occupied at equilibrium, for simple one-to-one binding. For `CCC(=O)O` [propionate], the Kd was determined as 101 µM.

A further assay deals with T2, PscD (PscD-SD, Cache sensor domain of chemoreceptor PscD). Briefly: ITC; thermal shift. The class given is binding.
Conditions: not given
As to `O=C(O)CO` [glycolate], the Kd worked out at 23 µM.

Still in this assay, the particulars now being: read-out: Kd.
Consider `CC(=O)O` [acetate], for which the Kd is 31 µM.

Take `CC(=O)C(=O)O` [pyruvate]: the Kd came to 356 µM.
